The results in this text go back to ChEMBL document CHEMBL1201862, “PubChem BioAssay data set” (2004).

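Method: 48-hour compound exposure of cells in 96-well plates, five concentrations, linear interpolation of endpoints. Abbreviation: GI50, concentration required for 50% inhibition of growth.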 Calls of active or inactive are those of the source. Rule as the data show it: active = GI50 up to about 1.1 µM and inactive = higher. A value given as a limit tells only on which side of the number the result lay.

What all share (assay): NCI-60 cell line screen, 48 h
In experiment [1] the test system is XF498.
Experiment [2] deals with LXFL 529.
Experiment [3] relates to RXF 631.
The subject of experiment [4] is HOP-18.
In experiment [5] the test system is KM-20L2.
Experiment [6] concerns M19-MEL.
Experiment [7] has as its system Hs-578T.
Experiment [8] relates to SNB-78.
Experiment [9] concerns BT-549.

In the case of `OCCOc1ccc(-c2cc(-c3ccccn3)nc(-c3ccccn3)c2)cc1`, the GI50 in experiment [1] is 38.7 nM (active); in [2], 376 nM (active); in experiment [3] it was 465 nM (active); in [4] it was 166 nM (active); in [5], < 38.3 nM (active); in [6], 96.2 nM (active). Moreover, the GI50 is 1370 nM (inactive) in [7], 2830 nM (inactive) in experiment [8] and 352 nM (active) in experiment [9].

For `CC(=O)O[C@H]1[C@H](O[C@H]2CC[C@]34C[C@]35CC[C@]3(C)[C@@H]([C@@]6(C)CC[C@@H](C(C)(C)O)O6)[C@@H](O)C[C@@]3(C)[C@@H]5C[C@H](O[C@@H]3O[C@H](CO)[C@@H](O)[C@H](O)[C@H]3O)[C@H]4C2(C)C)OC[C@@H](O)[C@@H]1O`, the GI50 in experiment [1] was > 100000 nM (inactive); in [2], 74800 nM (inactive); in experiment [3], > 100000 nM (inactive); in experiment [4] it was > 100000 nM (inactive); in experiment [5], 69700 nM (inactive); in [6] it was 78500 nM (inactive). In addition, in experiment [8], the GI50 is > 100000 nM (inactive).
